System: selected panel of PTPs (mPTPB, SHP2, PTP1B, CD45, LYP, FAP-1)
Assay: PTP activity assay, selected panel of PTPs
Assay type: biochemical
Settings: pH 7, 25 °C

Compound | PTP inhibitory activity (in words)
OC(c1ccccc1)(C(F)(F)F)C(F)(F)F [1a] | No appreciable activity
Cc1ccc(O)c(C(O)(C(F)(F)F)C(F)(F)F)c1 [1b] | moderate activity
Oc1cc2ccccc2cc1C(O)(C(F)(F)F)C(F)(F)F [1f] | the most potent one
O=C(COc1ccc2cc(C(O)(C(F)(F)F)C(F)(F)F)c(O)cc2c1)NC12CC3CC(CC(C3)C1)C2 [7d] | moderate activities
O=C(COc1ccc2cc(C(O)(C(F)(F)F)C(F)(F)F)c(O)cc2c1)NCCc1ccc(Cl)cc1Cl [7h] | moderate activities
O=C(COc1ccc2cc(C(O)(C(F)(F)F)C(F)(F)F)c(O)cc2c1)NC1c2ccccc2-c2ccccc21 [7i] | moderate activities
O=C(COc1ccc2cc(C(O)(C(F)(F)F)C(F)(F)F)c(O)cc2c1)N1c2ccccc2Sc2ccccc21 [7p] | very high activity
